Test results from patent publication US6348468B1, “Pyridazine compounds and compositions containing the same” (Kowa Co., Ltd., priority 1997, dated 2002).

Row | melting point [°C] | SMILES
1 | 152.2 to 152.3 | C[S+]([O-])c1ccc(-c2nn(CC3CC3)c(=O)cc2-c2ccc(Cl)cc2)cc1 (stereo not drawn) [Example 86, 5-(4-chlorophenyl)-2-cyclopropylmethyl-6-[4-(methylsulfinyl)phenyl]-2H-pyridazin-3-one]
2 | 133.3 to 133.5 | C[S+]([O-])c1ccc(-c2nn(CC3CC3)c(=O)cc2-c2ccc(F)cc2)cc1 (stereo not drawn) [Example 87, 2-cyclopropylmethyl-5-(4-fluorophenyl)-6-[4-(methylsulfinyl)phenyl]-2H-pyridazin-3-one]
3 | 81.3 to 81.5 | COc1ccc(Cn2nc(-c3ccc([S+](C)[O-])cc3)c(-c3ccc(F)cc3)cc2=O)cc1 (stereo not drawn) [Example 89, 5-(4-fluorophenyl)-2-(4-methoxybenzyl)-6-[4-(methylsulfinyl)phenyl]-2H-pyridazin-3-one]
4 | 155.6 to 155.7 | C[S+]([O-])c1ccc(-c2nn(Cc3ccc(F)cc3F)c(=O)cc2-c2ccc(Cl)cc2)cc1 (stereo not drawn) [Example 91, 2-(2,4-difluorobenzyl)-5-(4-chlorophenyl)-6-[4-(methylsulfinyl)phenyl]-2H-pyridazin-3-one]
5 | 236.5 to 237.3 | C[S+]([O-])c1ccc(-c2nn(Cc3ccc(Cl)cc3Cl)c(=O)cc2-c2ccc(Cl)cc2)cc1 (stereo not drawn) [Example 92, 5-(4-chlorophenyl)-2-(2,4-dichlorobenzyl)-6-[4-(methylsulfinyl)phenyl]-2H-pyridazin-3-one]
6 | 103.2 to 105.7 | CS(=O)(=O)c1ccc(-c2nn(Cc3ccccc3)c(=O)cc2-c2ccc(Cl)cc2)cc1 [Example 97, 2-benzyl-5-(4-chlorophenyl)-6-[4-(methylsulfonyl)phenyl]-2H-pyridazin-3-one]
7 | 254 to 254.7 | CS(=O)(=O)c1ccc(-c2n[nH]c(=O)cc2-c2ccc(Cl)cc2)cc1 [Example 98, 5-(4-chlorophenyl)-6-[4-(methylsulfonyl)phenyl]-2H-pyridazin-3-one]
8 | 139.7 to 139.8 | CS(=O)(=O)c1ccc(-c2nn(CC3CC3)c(=O)cc2-c2ccc(Cl)cc2)cc1 [Example 99, 5-(4-chlorophenyl)-2-cyclopropylmethyl-6-[4-(methylsulfonyl)phenyl]-2H-pyridazin-3-one]
9 | 123.8 to 123.9 | CS(=O)(=O)c1ccc(-c2nn(CC3CC3)c(=O)cc2-c2ccc(F)cc2)cc1 [Example 100, 2-cyclopropylmethyl-5-(4-fluorophenyl)-6-[4-(methylsulfonyl)phenyl]-2H-pyridazin-3-one]
10 | 173.8 to 173.9 | CS(=O)(=O)c1ccc(-c2nn(Cc3ccc(F)cc3F)c(=O)cc2-c2ccc(Cl)cc2)cc1 [Example 103, 2-(2,4-difluorobenzyl)-5-(4-chlorophenyl)-6-[4-(methylsulfonyl)phenyl]-2H-pyridazin-3-one]
11 | 232.7 to 234.5 | CS(=O)(=O)c1ccc(-c2nn(Cc3ccc(Cl)cc3Cl)c(=O)cc2-c2ccc(Cl)cc2)cc1 [Example 104, 5-(4-chlorophenyl)-2-(2,4-dichlorobenzyl)-6-[4-(methylsulfonyl)phenyl]-2H-pyridazin-3-one]
12 | 248 to 248.1 | CS(=O)(=O)c1ccc(-c2nn(Cc3cccnc3)c(=O)cc2-c2ccc(Cl)cc2)cc1 [Example 106, 5-(4-chlorophenyl)-6-[4-(methylsulfonyl)phenyl]-2-(3-pyridylmethyl)-2H-pyridazin-3-one]
13 | 253.3 to 254.5 | CS(=O)(=O)c1ccc(-c2nn(Cc3ccncc3)c(=O)cc2-c2ccc(F)cc2)cc1 [Example 107, 5-(4-fluorophenyl)-6-[4-(methylsulfonyl)phenyl]-2-(4-pyridylmethyl)-2H-pyridazin-3-one]
14 | 70.2 to 71.6 | CS(=O)(=O)c1ccc(-c2nn(CCCc3ccccc3)c(=O)cc2-c2ccc(Cl)cc2)cc1 [Example 108, 5-(4-chlorophenyl)-6-[4-(methylsulfonyl)phenyl]-2-(3-phenylpropyl)-2H-pyridazin-3-one]
15 | 211 to 212 | CS(=O)(=O)c1ccc(-c2nn(Cc3ccccc3)c(=O)cc2-c2ccccc2)cc1 [Example 109, 2-benzyl-6-[4-(methylsulfonyl)phenyl]-5-phenyl-2H-pyridazin-3-one]
16 | 241 to 242 | COc1ccc(-c2cc(=O)n(Cc3ccc(C(=O)O)cc3)nc2-c2ccc(OC)cc2)cc1 [Example 112, 5,6-bis(4-methoxyphenyl)-2-(4-carboxybenzyl)-2H-pyridazin-3-one]
17 | 135 to 137 | COc1ccc(-c2cc(=O)n(CCC(=O)NCc3ccccc3)nc2-c2ccc(OC)cc2)cc1 [Example 115, 5,6-bis(4-methoxyphenyl)-2-[2-(benzylaminocarbonyl)ethyl]-2H-pyridazin-3-one]
18 | 113.5 to 113.9 | CSc1ccc(C2=NN(Cc3ccccc3)C(=O)CC2c2ccc(Cl)cc2)cc1 (stereo not drawn) [Example 121, 2-benzyl-5-(4-chlorophenyl)-4,5-dihydro-6-[4-(methylthio)phenyl]-2H-pyridazin-3-one]
19 | 176.5 to 176.6 | CSc1ccc(-c2nn(Cc3ccc(F)cc3F)c(=S)cc2-c2ccc(Cl)cc2)cc1 [Example 133, 5-(4-chlorophenyl)-2-(2,4-difluorobenzyl)-6-[4-(methylthio)phenyl]-2H-pyridazine-3-thione]
20 | 218.7 to 218.9 | CSc1ccc(-c2n[nH]c(=S)cc2-c2ccc(F)cc2)cc1 [Example 136, 5-(4-fluorophenyl)-6-[4-(methylthio)phenyl]-2H-pyridazine-3-thione]
21 | 108.1 to 108.2 | CSc1ccc(-c2nn(Cc3ccccc3)c(=S)cc2-c2ccc(F)cc2)cc1 [Example 138, 2-benzyl-5-(4-fluorophenyl)-6-[4-(methylthio)phenyl]-2H-pyridazine-3-thione]
22 | 181.8 to 182 | CS(=O)(=O)c1ccc(-c2nn(Cc3ccccc3)c(=S)cc2-c2ccc(F)cc2)cc1 [Example 139, 2-benzyl-5-(4-fluorophenyl)-6-[4-(methylsulfonyl)phenyl]-2H-pyridazine-3-thione]
23 | 112.7 to 112.9 | COc1ccc(Cn2nc(-c3ccc(SC)cc3)c(-c3ccc(F)cc3)cc2=S)cc1 [Example 140, 5-(4-fluorophenyl)-2-(4-methoxybenzyl)-6-(4-(methylthio)phenyl]-2H-pyridazine-3-thione]
24 | 154 to 154.2 | CSc1ccc(-c2nn(Cc3ccc(Cl)cc3Cl)c(=S)cc2-c2ccc(F)cc2)cc1 [Example 141, 2-(2,4-dichlorobenzyl)-5-(4-fluorophenyl)-6-[4-(methylthio)phenyl]-2H-pyridazine-3-thione]
25 | 136.6 to 137.8 | COc1ccc(-c2cc(=O)n(Cc3ccccc3)nc2-c2ccc(OC)c(F)c2)cc1 [Example 144, 2-benzyl-6-(3-fluoro-4-methoxyphenyl)-5-(4-methoxyphenyl)-2H-pyridazin-3-one]
26 | 144 to 145.4 | COc1ccc(-c2cc(=O)n(CC=Cc3ccc(Cl)cc3)nc2-c2ccc(OC)c(F)c2)cc1 [Example 145, 2-(4-chlorocinnamyl)-6-(3-fluoro-4-methoxyphenyl)-5-(4-methoxyphenyl)-2H-pyridazin-3-one]
27 | 122.6 to 123.5 | CCn1nc(-c2ccc(OC)c(F)c2)c(-c2ccc(OC)cc2)cc1=O [Example 146, 2-ethyl-6-(3-fluoro-4-methoxyphenyl)-5-(4-methoxyphenyl)-2H-pyridazin-3-one]
